{
  "source": "PubChem BioAssay AID1963985",
  "about": "(Molecular Pharmacology Branch, DTP, NCI, 2024);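 also: spheroids exposed to agents for seven days before readout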;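 as to viability, T/C: percent of vehicle DMSO control viability so 100% = untreated growth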",
  "tested_on": "252836-082-R-J2-PDC tumor spheroids, viability",
  "experiment": "Anticancer human tumor 252836-082-R-J2-PDC patient-derived head and neck squamous cell carcinoma cell line growth inhibition [PI3K]",
  "conditions": "spheroids with HUVEC and MSC; for IC50: curve of first compound; for viability, T/C: stronger effect = lower value",
  "how_it_was_run": "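Tumor cells were combined with HUVEC and MSCs into spheroids, then dosed with PI3K-inhibitor combinations over half-log ranges capped near clinical Cmax or 10 microM.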",
  "data": [
    {"smiles": "CNC(=O)c1ccc(N2C(=S)N(c3ccc(C#N)c(C(F)(F)F)c3)C(=O)C2(C)C)cc1F", "note": "+ COc1c(OCCCN2CCOCC2)ccc2c3n(c(=NC(=O)c4cnc(N)nc4)nc12)CCN3", "values": [
      {"measurement": "IC50", "setting": "second compound 0.00316 µM", "result": "> 10", "unit": "µM"},
      {"measurement": "IC50", "setting": "second compound 0.01 µM", "result": "> 10", "unit": "µM"},
      {"measurement": "IC50", "setting": "second compound 0.0316 µM", "result": "> 10", "unit": "µM"},
      {"measurement": "IC50", "setting": "second compound 0.1 µM", "result": "< 0.0316", "unit": "µM"},
      {"measurement": "IC50", "setting": "second compound 0.316 µM", "result": "< 0.0316", "unit": "µM"},
      {"measurement": "IC50", "setting": "second compound 1 µM", "result": "< 0.0316", "unit": "µM"},
      {"measurement": "viability, T/C", "setting": "second compound 0.00316 µM, first compound 0.0316 µM", "result": 97.9, "unit": "%"},
      {"measurement": "viability, T/C", "setting": "second compound 0.00316 µM, first compound 0.1 µM", "result": 85.8, "unit": "%"},
      {"measurement": "viability, T/C", "setting": "second compound 0.00316 µM, first compound 0.316 µM", "result": 87.3, "unit": "%"},
      {"measurement": "viability, T/C", "setting": "second compound 0.00316 µM, first compound 1 µM", "result": 96.5, "unit": "%"},
      {"measurement": "viability, T/C", "setting": "second compound 0.00316 µM, first compound 3.16 µM", "result": 96.2, "unit": "%"},
      {"measurement": "viability, T/C", "setting": "second compound 0.00316 µM, first compound 10 µM", "result": 77.7, "unit": "%"},
      {"measurement": "viability, T/C", "setting": "second compound 0.01 µM, first compound 0.0316 µM", "result": 73, "unit": "%"},
      {"measurement": "viability, T/C", "setting": "second compound 0.01 µM, first compound 0.1 µM", "result": 64.5, "unit": "%"},
      {"measurement": "viability, T/C", "setting": "second compound 0.01 µM, first compound 0.316 µM", "result": 79.5, "unit": "%"},
      {"measurement": "viability, T/C", "setting": "second compound 0.01 µM, first compound 1 µM", "result": 71.9, "unit": "%"},
      {"measurement": "viability, T/C", "setting": "second compound 0.01 µM, first compound 3.16 µM", "result": 76.1, "unit": "%"},
      {"measurement": "viability, T/C", "setting": "second compound 0.01 µM, first compound 10 µM", "result": 80, "unit": "%"},
      {"measurement": "viability, T/C", "setting": "second compound 0.0316 µM, first compound 0.0316 µM", "result": 60.7, "unit": "%"},
      {"measurement": "viability, T/C", "setting": "second compound 0.0316 µM, first compound 0.1 µM", "result": 60.1, "unit": "%"},
      {"measurement": "viability, T/C", "setting": "second compound 0.0316 µM, first compound 0.316 µM", "result": 49.9, "unit": "%"},
      {"measurement": "viability, T/C", "setting": "second compound 0.0316 µM, first compound 1 µM", "result": 60.9, "unit": "%"},
      {"measurement": "viability, T/C", "setting": "second compound 0.0316 µM, first compound 3.16 µM", "result": 62.8, "unit": "%"},
      {"measurement": "viability, T/C", "setting": "second compound 0.0316 µM, first compound 10 µM", "result": 54.3, "unit": "%"},
      {"measurement": "viability, T/C", "setting": "second compound 0.1 µM, first compound 0.0316 µM", "result": 36, "unit": "%"},
      {"measurement": "viability, T/C", "setting": "second compound 0.1 µM, first compound 0.1 µM", "result": 38, "unit": "%"},
      {"measurement": "viability, T/C", "setting": "second compound 0.1 µM, first compound 0.316 µM", "result": 36, "unit": "%"},
      {"measurement": "viability, T/C", "setting": "second compound 0.1 µM, first compound 1 µM", "result": 36.3, "unit": "%"},
      {"measurement": "viability, T/C", "setting": "second compound 0.1 µM, first compound 3.16 µM", "result": 33.5, "unit": "%"},
      {"measurement": "viability, T/C", "setting": "second compound 0.1 µM, first compound 10 µM", "result": 34.5, "unit": "%"},
      {"measurement": "viability, T/C", "setting": "second compound 0.316 µM, first compound 0.0316 µM", "result": 19, "unit": "%"},
      {"measurement": "viability, T/C", "setting": "second compound 0.316 µM, first compound 0.1 µM", "result": 17.2, "unit": "%"},
      {"measurement": "viability, T/C", "setting": "second compound 0.316 µM, first compound 0.316 µM", "result": 17.1, "unit": "%"},
      {"measurement": "viability, T/C", "setting": "second compound 0.316 µM, first compound 1 µM", "result": 17.3, "unit": "%"},
      {"measurement": "viability, T/C", "setting": "second compound 0.316 µM, first compound 3.16 µM", "result": 17.4, "unit": "%"},
      {"measurement": "viability, T/C", "setting": "second compound 0.316 µM, first compound 10 µM", "result": 13.4, "unit": "%"},
      {"measurement": "viability, T/C", "setting": "second compound 1 µM, first compound 0.0316 µM", "result": 4.5, "unit": "%"},
      {"measurement": "viability, T/C", "setting": "second compound 1 µM, first compound 0.1 µM", "result": 3.94, "unit": "%"},
      {"measurement": "viability, T/C", "setting": "second compound 1 µM, first compound 0.316 µM", "result": 5.87, "unit": "%"},
      {"measurement": "viability, T/C", "setting": "second compound 1 µM, first compound 1 µM", "result": 4.83, "unit": "%"},
      {"measurement": "viability, T/C", "setting": "second compound 1 µM, first compound 3.16 µM", "result": 4.62, "unit": "%"},
      {"measurement": "viability, T/C", "setting": "second compound 1 µM, first compound 10 µM", "result": 4.12, "unit": "%"}
    ]}
  ]
}
